Source: US20070167488A1, “Novel therapeutic use” (Leo Pharma A/S, priority 2003, published 2007)
Read-outs that look alike come from different tables or passages of the source.

Tested on: IL-2
Assay: Inhibition of IL-2 production in phytohemagglutinin-activated human PBMCs (sandwich ELISA)
Format: cell-based
Conditions: approximately 46 hours; for IC50: PBMC, read-out: IL-2 pIC50 (converted)
Method: Peripheral blood mononuclear cells (PBMCs) were isolated from human blood. The lymphocytes, a fraction of the PBMCs, were activated to secrete IL-2 using the polyclonal mitogen phytohemagglutinin. The test compounds were added in concentrations from 10^−5 to 10^−10, and the cells (10^6/ml) were incubated in microtiter wells at 37° C. for approximately 46 hours.
After 46 hours the cells were centrifuged down for 25 minutes at 1000×g and the supernatants were transferred to transferred to microtiter wells precoated with a monoclonal antibody against human IL-2. The IL-2 concentration in the supernatants was determined by a sandwich ELISA. Microtiter plates were coated (1 μg/ml) with a monoclonal antibody (R&D, UK) against human IL-2, washed 4 times, blocked with 1% casein buffer for 2 hours and washed 2 times. 100 μl sample was added to each well and incubated overnight. All samples were tested in triplicate. 100 μl IL-2 standards (R&D, UK) at a concentration range of 10000-0 pg/ml were tested in triplicate. After incubation the plates were washed and incubated with biotinylated polyclonal secondary antibody against human IL-2 (R&D, UK) for 45 minutes and thereafter washed 4 times. 100 μl enzyme conjugate, horseradish peroxidase conjugated streptavidin diluted 1:4000 (Zymed, USA), was added to all wells and incubated for 30 minutes. 100 μl OPD substrate (KEM EN TEC-DK) was added and the enzyme/substrate reaction stopped after 10 minutes at room temperature with 50 μl 1 M H2SO4. The colour development (optical density—OD) was determined at 492 nm on an ELISA reader and the background OD at 620 nm subtracted).

| SMILES | IC50 (Homo sapiens, 46 h) [nM] | further results |
| --- | --- | --- |
| COc1cc[nH]c1/C=C1\C(=O)Nc2cccc(Cl)c21 | 0.1 |  |
| COc1ccc(OC)c(/C=C2/C(=O)Nc3ccccc32)c1 [drawing 114] | 3.98 |  |
| COc1ccc2c(/C=C3\C(=O)Nc4ccccc43)c[nH]c2c1 | 0.2 |  |
| N#Cc1ccc2c(c1)/C(=C/c1c[nH]c3ccccc13)C(=O)N2 | 1 |  |
| O=C1Nc2ccccc2/C1=C/c1ccc(Cl)cc1 | 79.4 |  |
| O=C1Nc2ccccc2/C1=C\c1cc(Br)ccc1Br | 39.8 |  |
| COc1cc(OC)c(OC)cc1/C=C1/C(=O)Nc2ccccc21 | 2 |  |
| O=C1Nc2ccccc2/C1=C/c1ccc(Cl)c(Cl)c1 | 20 |  |
| COc1ccc(OC)c(/C=C2/C(=O)Nc3ccc(N)cc32)c1.CS(=O)(=O)O |  | IL-2 pIC50: 7.2 |
| COc1ccc(OC)c(/C=C2/C(=O)Nc3cc(C(F)(F)F)ccc32)c1 | 10 |  |
| O=C1Nc2ccccc2/C1=C\c1cc(-c2ccccc2)cs1 | 31.6 |  |
| CCn1c2ccccc2c2cc(/C=C3/C(=O)Nc4ccccc43)ccc21 | 200 |  |
| O=C1Nc2ccccc2/C1=C\c1c[nH]c2c(F)c(F)c(F)c(F)c12 | 2 |  |
| CCCn1cc(/C=C2\C(=O)Nc3ccccc32)c2ccccc21 [drawing 137] | 0.2 |  |
| Cc1cc(C)c(/C=C2\C(=O)Nc3cccc(C(=O)O)c32)[nH]1 | 100 |  |
| Cc1[nH]c(/C=C2\C(=O)Nc3cccc(Cl)c32)c(C)c1CCC(=O)O | 50.1 |  |
| O=C1Nc2ccccc2/C1=C\c1cc(Cl)ccc1Cl | 3.16 |  |
| COc1ccc(/C=C2\C(=O)Nc3ccc(Cl)cc32)cc1 | 10 |  |
| Cc1cc(C(=O)NCCCCCO)[nH]c1/C=C1\C(=O)Nc2ccccc21 | 63.1 |  |
| COc1ccc(OC)c(/C=C2/C(=O)Nc3ccc(Br)cc32)c1 | 100 |  |
| CON1C(=O)/C(=C\c2[nH]c(C)cc2C)c2ccccc21 | 10 |  |
| O=C1Nc2ccccc2/C1=C\c1cccc(F)c1 | 200 |  |

| SMILES | IC50 (Homo sapiens, 46 h) [nM] | further results |
| --- | --- | --- |
| Cc1cc(C(=O)NCC2CCCO2)[nH]c1/C=C1\C(=O)Nc2ccccc21 (centres unmarked) | 20 |  |
| Cc1cccc(/C=C2\C(=O)Nc3ccccc32)c1 | 631 |  |
| Cn1c(/C=C2/C(=O)Nc3ccccc32)cc2ccccc21 | 100 |  |
| COc1ccc2[nH]cc(/C=C3\C(=O)Nc4ccccc43)c2c1 | 10 |  |
| Cc1cc(/C=C2/C(=O)Nc3ccccc32)sc1C | 100 |  |
| Cc1[nH]c(/C=C2\C(=O)N(O)c3ccccc32)c(C)c1Br | 1 |  |
| Cc1cc(C)c(/C=C2\C(=O)Nc3ccc(F)cc32)[nH]1 | 100 |  |
| COc1ccc2c(/C=C3\C(=O)Nc4ccccc43)cn(C)c2c1 | 6.31 |  |
| Cc1cc(C(=O)OCc2ccncc2)[nH]c1/C=C1\C(=O)Nc2ccccc21 | 31.6 |  |
| O=C1Nc2ccccc2/C1=C\c1cc(Cl)cc(Cl)c1O | 398 |  |
| O=C1Nc2ccccc2/C1=C\c1cccc(Br)c1 | 10 |  |
| O=C1Nc2ccccc2/C1=C/c1c[nH]c2cc(F)ccc12 | 1 |  |
| Cc1[nH]c(/C=C2\C(=O)Nc3ccccc32)c(C)c1CCC(=O)O | 50.1 |  |
| Cc1cccc2c(/C=C3/C(=O)Nc4ccccc43)c[nH]c12 | 3.98 |  |
| O=CN1CCN(c2ccc(/C=C3\C(=O)Nc4ccccc43)cc2)CC1 | 316 |  |
| COc1ccc(F)c(/C=C2/C(=O)Nc3ccccc32)c1 | 63.1 |  |
| COc1ccc(O)c(/C=C2/C(=O)Nc3ccccc32)c1 | 316 |  |
| O=C1Nc2ccccc2/C1=C\c1ccc(Br)s1 | 20 |  |
| O=C1Nc2ccccc2/C1=C/c1c[nH]c2ccccc12 | 1 |  |
| O=C1Nc2ccccc2/C1=C/c1cc(Br)ccc1O | 20 |  |
| Cc1ccc(/C=C2\C(=O)Nc3ccccc32)c(C)c1 | 631 |  |
| COc1cc[nH]c1/C=C1\C(=O)Nc2ccc(Cl)cc21 | 50.1 |  |

| SMILES | IC50 (Homo sapiens, 46 h) [nM] | further results |
| --- | --- | --- |
| Cc1cc(C)c(/C=C2\C(=O)Nc3ccccc32)[nH]1 |  | IC50: 0.2 nM |
| Cc1cccc(COc2ccc(/C=C3/C(=O)Nc4ccccc43)cc2)n1 | 398 |  |
| O=C1Nc2c(F)cccc2/C1=C/c1c[nH]c2ccccc12 | 0.316 |  |
| COc1cc(/C=C2/C(=O)Nc3ccccc32)ccc1O | 100 |  |
| O=C1Nc2ccc(Cl)cc2/C1=C/c1ccccc1O | 100 |  |
| Cc1[nH]c(/C=C2\C(=O)Nc3ccccc32)c(C)c1Cl | 1 |  |
| O=C1Nc2ccccc2/C1=C\c1ccc([N+](=O)[O-])s1 | 31.6 |  |
| O=C1Nc2cc(Br)ccc2/C1=C/c1c[nH]c2ccccc12 | 3.16 |  |
| O=C1Nc2c(Br)cccc2/C1=C/c1c[nH]c2ccccc12 | 0.2 |  |
| O=C1Nc2ccccc2/C1=C\c1cn(Cc2cnc(Cl)s2)c2ccccc12 | 10 |  |
| O=C1Nc2ccccc2/C1=C/c1ccc2ccccc2c1 | 631 |  |
| O=C1Nc2ccccc2/C1=C/c1ccc(Cl)cc1Cl | 200 |  |
| COc1ccc(OC)c(/C=C2/C(=O)Nc3cc(Br)ccc32)c1 [drawing 164] | 1 |  |
| O=C1Nc2ccccc2/C1=C\c1cc(Cl)cc(Cl)c1OCc1ccc2ccccc2n1 | 100 |  |
| COc1ccc(/C=C2/C(=O)Nc3ccccc32)c(OC)c1 | 2 |  |
| Cc1ccc2c(/C=C3/C(=O)Nc4ccccc43)c[nH]c2c1 | 0.1 |  |
| COc1ccc(OC)c(/C=C2\C(=O)Nc3ccc(Cl)cc32)c1 | 20 |  |
| Cc1[nH]c(/C=C2\C(=O)Nc3ccccc32)c(C)c1Br [drawing 211] | 79.4 |  |
| CN1CCN(c2c(/C=C3\C(=O)Nc4ccccc43)c3ccccc3n2C)CC1 | 79.4 |  |
| COc1ccc(OC)c(/C=C2/C(=O)Nc3ccc(C(F)(F)F)cc32)c1 | 631 |  |
| CCOc1ccc(OCC)c(/C=C2/C(=O)Nc3ccccc32)c1 | 631 |  |
| Cn1cc(/C(C(=O)O)=C2\C(=O)Nc3ccccc32)c2ccccc21 | 794 |  |

| SMILES | IC50 (Homo sapiens, 46 h) [nM] | further results |
| --- | --- | --- |
| CCOC(=O)CCCNC(=O)c1cc(C)c(/C=C2\C(=O)Nc3ccccc32)[nH]1 | 39.8 |  |
| COc1ccc(OC)c(/C=C2/C(=O)Nc3c(F)cccc32)c1 | 501 |  |
| COc1ccc(OC)c(/C=C2/C(=O)Nc3ccc(O)cc32)c1 | 200 |  |
| O=C1Nc2cc(C(F)(F)F)ccc2/C1=C/c1c[nH]c2ccccc12 | 20 |  |
| O=C1Nc2ccccc2/C1=C\c1cc(Br)cs1 | 6.31 |  |
| Cc1cc(C(=O)NCCCCCCO)[nH]c1/C=C1\C(=O)Nc2ccccc21 | 100 |  |
| Cc1cc(C)c(/C(C(=O)OCc2ccccc2)=C2\C(=O)Nc3ccccc32)[nH]1 | 20 |  |
| COc1ccc(OC)c(/C=C2/C(=O)Nc3c(Br)cccc32)c1 | 10 |  |
| COc1ccc(OC)c(/C=C2/C(=O)Nc3ccc(Cl)cc32)c1 | 6.31 |  |
| Cc1cc(C(=O)O)[nH]c1/C=C1\C(=O)Nc2ccccc21 | 200 |  |
| COc1ccc(OC)c(/C=C2/C(=O)Nc3c(C#N)cccc32)c1 | 31.6 |  |
| O=C1Nc2ccccc2/C1=C\c1c(-c2ccccc2)[nH]c2ccccc12 | 100 |  |
| COc1ccc(Br)cc1/C=C1/C(=O)Nc2ccccc21 | 10 |  |
| COc1ncc(/C=C2/C(=O)Nc3ccccc32)c(OC)n1 | 6.31 |  |
| Cc1ccc2[nH]cc(/C=C3/C(=O)Nc4ccccc43)c2c1 | 20 |  |
| COC(=O)CCCNC(=O)c1cc(C)c(/C=C2\C(=O)Nc3ccccc32)[nH]1 | 50.1 |  |
| O=C1Nc2ccccc2/C1=C/c1c[nH]c2ccc(OCc3ccccc3)cc12 | 10 |  |
| O=C1Nc2c(F)cc(F)cc2/C1=C/c1c[nH]c2ccccc12 | 2 |  |
| Cc1cc(C[n+]2ccccc2)[nH]c1/C=C1\C(=O)Nc2ccccc21 | 6.31 |  |
| COc1ccc(OC)c(/C=C2/C(=O)Nc3cc(Cl)ccc32)c1 | 31.6 |  |
